In assay [1] the target is T1, Voltage-gated N-type calcium channel alpha-1B subunit/Amyloid beta A4 precursor protein-binding family A member 1 (Homo sapiens, UniProt Q00975+Q02410). It is filed as protein assay.
In assay [2] the target is T1, Voltage-gated N-type calcium channel alpha-1B subunit/Amyloid beta A4 precursor protein-binding family A member 1. The class given is protein assay. This is another data set of the same source.
Assay [3] deals with Estrogen receptor beta (Homo sapiens, UniProt Q92731). Description: ERβ–SRC-3 coactivator interaction inhibitors, confirmation, orthogonal assay, biochemical, ELISA, streptavidin-HRP readout (AID 1060). (In general: In an ELISA, binding on a coated surface is turned into a signal by an enzyme label.)
For assay [4], the target named is T1, Voltage-gated N-type calcium channel alpha-1B subunit/Amyloid beta A4 precursor protein-binding family A member 1. Description: disruptors of Mint-PDZ/N-type channel peptide interaction – biochemical, HTRF, SAR follow-up (AID 2489). The class given is functional. In general terms: TR-FRET usually uses a lanthanide donor and a delayed reading to cut background.

Assay [5] deals with Glutathione-S-transferase (Schistosoma japonicum, UniProt Q26513). In words: biotin-GST/anti-GST TR-FRET signal inhibitors, dose response, artefact control for Vif-APOBEC3G degradation inhibitor project, biochemical (AID 1117362). It is filed as functional.
Assay [6] is described as follows: inhibitors of firefly luciferase expression or activity, dose response, H4 neuroglioma cells, luminescence (AID 1990). It is filed as functional, cell-based.
A short description of assay [7]: luciferase reporter signal reduction – luminescence, H4-C neuroglioblastoma cells, dose response (AID 2458).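 Note: H4 neuroglioblastoma cells stably carrying a luciferase reporter gene fusion.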 It is filed as functional, cell-based. A general note: In a reporter assay the amount or activity of a reporter protein is the signal.
Assay [8] is described as follows: cells. The class given is functional, cell-based.
The nature of assay [9]: Luminescence Cell-Based Dose Response HTS to Identify Inhibitors of 5'UTR Stem-Loop Driven Prion Protein mRNA Translation in H4 Neuroglioblastoma Cells. [Related pubchem assays: 1827 (Project Summary), 1813 (Primary HTS)]. The class given is functional.
Assay [10] can be described thus: inhibitors of SNCA 5'UTR-driven reporter translation, confirmation, H4 neuroglioma cells, luminescence (AID 1988). It is filed as functional, cell-based.
A short description of assay [11]: inhibitors of SNCA 5'UTR-driven translation, confirmation, luminescence, H4 neuroglioblastoma cells, dose confirmation (AID 2454).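 Note: H4 neuroglioblastoma cells carrying an alpha-synuclein 5'UTR luciferase reporter; potency for inhibition of the luciferase signal.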 The class given is functional, cell-based.
The target in assay [12] is T2, Eukaryotic translation initiation factor 4H (Homo sapiens, UniProt Q15056). Description: human eIF4H binding inhibitors, primary screen, translation initiation inhibitor project, biochemical, uHTS, fluorescence polarization (AID 2012).
Assay [13] concerns the target T3, Polyadenylate-binding protein 1 (Homo sapiens, UniProt P11940). In words: PABP poly(A) RNA binding inhibitors, primary screen, biochemical, fluorescence polarization, uHTS (AID 2014).
The target in assay [14] is DNA dC->dU-editing enzyme APOBEC-3A (Homo sapiens, UniProt P31941). In words: Dose Response confirmation of small molecule APOBEC3A DNA Deaminase Inhibitors via a fluorescence-based single-stranded DNA deaminase assay. [Related pubchem assays (depositor defined):AID493011, AID493024]. The class given is functional.
Sequence of DNA dC->dU-editing enzyme APOBEC-3A (P31941 whole entry): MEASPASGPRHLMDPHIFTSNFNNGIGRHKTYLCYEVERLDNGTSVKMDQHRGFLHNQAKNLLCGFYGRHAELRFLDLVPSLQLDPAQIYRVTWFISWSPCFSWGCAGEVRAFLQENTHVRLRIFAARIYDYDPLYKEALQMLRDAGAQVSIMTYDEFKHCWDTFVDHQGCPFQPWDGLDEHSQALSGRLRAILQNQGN
Assay [15] addresses T4, DNA dC->dU-editing enzyme APOBEC-3G (Homo sapiens, UniProt Q9HC16). It is filed as functional.
Assay [16] addresses T5, Carboxy-terminal domain RNA polymerase II polypeptide A small phosphatase 1 (Homo sapiens, UniProt Q9GZU7).
T5 sequence (Q9GZU7 whole entry): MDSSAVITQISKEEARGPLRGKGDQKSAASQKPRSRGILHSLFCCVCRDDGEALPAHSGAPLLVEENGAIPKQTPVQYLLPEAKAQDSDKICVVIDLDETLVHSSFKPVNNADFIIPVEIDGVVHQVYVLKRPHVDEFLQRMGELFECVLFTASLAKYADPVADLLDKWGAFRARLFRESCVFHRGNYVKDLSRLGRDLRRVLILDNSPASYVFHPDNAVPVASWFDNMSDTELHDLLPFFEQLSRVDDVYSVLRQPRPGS
Description: inhibitors of CTDSP1, concentration-response testing, biochemical assay, absorbance-based, actives from ultra-high-throughput screening (AID 540297). The class given is functional.

Assay [17] addresses T2, Eukaryotic translation initiation factor 4H. In words: eIF4H inhibition in translation initiation, SAR follow-up (AID 435011). The class given is functional.
Assay [18] has as its target T3, Polyadenylate-binding protein 1. Description: PABP inhibition in translation initiation, SAR follow-up (AID 435018). The class given is functional.
In assay [19] the target is Induced myeloid leukemia cell differentiation protein Mcl-1 (Homo sapiens, UniProt Q07820). It is filed as functional.
Assay [20] concerns the target T4, DNA dC->dU-editing enzyme APOBEC-3G. In words: Dose Response confirmation of small molecule APOBEC3G DNA Deaminase Inhibitors via a fluorescence-based single-stranded DNA deaminase assay. [Related pubchem assays (depositor defined):AID493012, AID493028]. The class given is functional.
Assay [21] deals with DNA (cytosine-5)-methyltransferase 1 (Homo sapiens, UniProt P26358). In words: DNMT1 methyltransferase inhibitors, confirmation, biochemical, fluorescent molecular beacon (AID 602386). It is filed as functional.
The target in assay [22] is Aspartyl aminopeptidase (Plasmodium falciparum 3D7, UniProt Q8I2J3).
The target of assay [23] is Procathepsin L (Homo sapiens, UniProt P07711).
Sequence of Procathepsin L (P07711 whole entry): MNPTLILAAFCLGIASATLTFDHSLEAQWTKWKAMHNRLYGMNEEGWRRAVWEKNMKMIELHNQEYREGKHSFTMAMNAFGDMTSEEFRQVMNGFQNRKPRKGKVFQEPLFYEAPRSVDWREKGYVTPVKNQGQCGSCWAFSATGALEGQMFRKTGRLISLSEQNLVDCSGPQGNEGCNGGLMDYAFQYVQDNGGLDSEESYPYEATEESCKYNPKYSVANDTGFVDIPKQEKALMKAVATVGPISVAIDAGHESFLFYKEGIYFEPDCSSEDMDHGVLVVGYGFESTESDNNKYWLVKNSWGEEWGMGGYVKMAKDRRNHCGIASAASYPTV
Assay [24] relates to HeLa. Description: HeLa cell cytotoxicity, dose response, cytotoxicity control, 24 h, cherry-picked samples (AID 504726).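 Note: potency for cytotoxicity as loss of luminescence signal.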 The class given is functional, cell-based. The note with it: Homo sapiens.
Assay [25] in a line: cytotoxicity in HEK-293T cells, dose response, cytotoxicity control for TCR NF-kB inhibitor project, luminescence, T-cell screen hits (AID 489026).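 Note: cells exposed to compound about 14 hours before the viability readout.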 The class given is functional, cell-based.
Assay [26] in a line: cells. It is filed as functional, cell-based. The source holds these as a separate data set.
Assay [27] deals with T6, Nuclear receptor subfamily 0 group B member 1 (Homo sapiens, UniProt P51843).
T6 sequence (P51843 whole entry): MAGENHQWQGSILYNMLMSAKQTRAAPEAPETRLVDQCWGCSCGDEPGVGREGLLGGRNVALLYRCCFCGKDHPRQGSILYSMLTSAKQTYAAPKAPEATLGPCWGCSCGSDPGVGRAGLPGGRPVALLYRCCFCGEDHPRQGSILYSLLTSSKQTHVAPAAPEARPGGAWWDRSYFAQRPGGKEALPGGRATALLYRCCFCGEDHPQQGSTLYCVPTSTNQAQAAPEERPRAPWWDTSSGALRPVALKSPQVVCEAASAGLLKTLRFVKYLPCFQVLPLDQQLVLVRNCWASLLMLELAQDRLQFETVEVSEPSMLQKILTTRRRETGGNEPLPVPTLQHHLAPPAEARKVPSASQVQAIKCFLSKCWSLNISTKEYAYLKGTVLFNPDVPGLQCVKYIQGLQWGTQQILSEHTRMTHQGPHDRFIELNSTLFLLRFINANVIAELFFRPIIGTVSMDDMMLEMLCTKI
It is filed as functional, cell-based.

A word on the IC50: it is the concentration at which inhibition is half-maximal. One may read the EC50 as the midpoint of the concentration-response curve. What is called AC50 is the midpoint of the concentration-response curve, whichever way the signal moves.

Structures can show the parent of a compound that is named as a salt. Active and inactive are the calls of the source.

T4 sequence (Q9HC16 whole entry, the tested form may be a part): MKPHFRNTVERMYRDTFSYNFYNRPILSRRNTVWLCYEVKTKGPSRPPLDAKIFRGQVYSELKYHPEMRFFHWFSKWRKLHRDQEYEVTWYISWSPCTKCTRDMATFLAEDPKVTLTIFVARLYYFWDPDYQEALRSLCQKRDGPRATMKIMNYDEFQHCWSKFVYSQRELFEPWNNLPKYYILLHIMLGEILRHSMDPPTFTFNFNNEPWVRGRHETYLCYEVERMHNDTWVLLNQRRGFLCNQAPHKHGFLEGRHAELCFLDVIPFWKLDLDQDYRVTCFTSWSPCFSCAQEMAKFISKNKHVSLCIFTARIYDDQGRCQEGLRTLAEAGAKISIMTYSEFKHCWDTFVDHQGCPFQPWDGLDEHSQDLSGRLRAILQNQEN
T3 sequence (P11940 whole entry): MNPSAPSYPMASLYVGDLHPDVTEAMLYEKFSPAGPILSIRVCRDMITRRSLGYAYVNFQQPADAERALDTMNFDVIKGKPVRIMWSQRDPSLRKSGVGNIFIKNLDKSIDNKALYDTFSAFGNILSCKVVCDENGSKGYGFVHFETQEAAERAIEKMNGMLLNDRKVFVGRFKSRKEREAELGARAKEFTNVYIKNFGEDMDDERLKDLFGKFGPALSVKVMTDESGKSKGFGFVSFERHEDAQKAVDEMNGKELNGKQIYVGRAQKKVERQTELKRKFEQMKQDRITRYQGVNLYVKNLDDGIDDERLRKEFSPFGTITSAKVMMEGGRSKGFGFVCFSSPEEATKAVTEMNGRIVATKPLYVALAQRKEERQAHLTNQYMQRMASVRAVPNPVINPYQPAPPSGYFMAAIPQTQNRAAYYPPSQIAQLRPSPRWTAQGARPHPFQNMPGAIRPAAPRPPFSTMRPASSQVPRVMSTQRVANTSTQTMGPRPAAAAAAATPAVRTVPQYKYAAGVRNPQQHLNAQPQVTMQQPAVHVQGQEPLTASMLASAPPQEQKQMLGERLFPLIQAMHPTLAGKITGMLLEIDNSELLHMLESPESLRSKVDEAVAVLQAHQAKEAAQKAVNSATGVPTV
T1 sequence (Q00975 whole entry): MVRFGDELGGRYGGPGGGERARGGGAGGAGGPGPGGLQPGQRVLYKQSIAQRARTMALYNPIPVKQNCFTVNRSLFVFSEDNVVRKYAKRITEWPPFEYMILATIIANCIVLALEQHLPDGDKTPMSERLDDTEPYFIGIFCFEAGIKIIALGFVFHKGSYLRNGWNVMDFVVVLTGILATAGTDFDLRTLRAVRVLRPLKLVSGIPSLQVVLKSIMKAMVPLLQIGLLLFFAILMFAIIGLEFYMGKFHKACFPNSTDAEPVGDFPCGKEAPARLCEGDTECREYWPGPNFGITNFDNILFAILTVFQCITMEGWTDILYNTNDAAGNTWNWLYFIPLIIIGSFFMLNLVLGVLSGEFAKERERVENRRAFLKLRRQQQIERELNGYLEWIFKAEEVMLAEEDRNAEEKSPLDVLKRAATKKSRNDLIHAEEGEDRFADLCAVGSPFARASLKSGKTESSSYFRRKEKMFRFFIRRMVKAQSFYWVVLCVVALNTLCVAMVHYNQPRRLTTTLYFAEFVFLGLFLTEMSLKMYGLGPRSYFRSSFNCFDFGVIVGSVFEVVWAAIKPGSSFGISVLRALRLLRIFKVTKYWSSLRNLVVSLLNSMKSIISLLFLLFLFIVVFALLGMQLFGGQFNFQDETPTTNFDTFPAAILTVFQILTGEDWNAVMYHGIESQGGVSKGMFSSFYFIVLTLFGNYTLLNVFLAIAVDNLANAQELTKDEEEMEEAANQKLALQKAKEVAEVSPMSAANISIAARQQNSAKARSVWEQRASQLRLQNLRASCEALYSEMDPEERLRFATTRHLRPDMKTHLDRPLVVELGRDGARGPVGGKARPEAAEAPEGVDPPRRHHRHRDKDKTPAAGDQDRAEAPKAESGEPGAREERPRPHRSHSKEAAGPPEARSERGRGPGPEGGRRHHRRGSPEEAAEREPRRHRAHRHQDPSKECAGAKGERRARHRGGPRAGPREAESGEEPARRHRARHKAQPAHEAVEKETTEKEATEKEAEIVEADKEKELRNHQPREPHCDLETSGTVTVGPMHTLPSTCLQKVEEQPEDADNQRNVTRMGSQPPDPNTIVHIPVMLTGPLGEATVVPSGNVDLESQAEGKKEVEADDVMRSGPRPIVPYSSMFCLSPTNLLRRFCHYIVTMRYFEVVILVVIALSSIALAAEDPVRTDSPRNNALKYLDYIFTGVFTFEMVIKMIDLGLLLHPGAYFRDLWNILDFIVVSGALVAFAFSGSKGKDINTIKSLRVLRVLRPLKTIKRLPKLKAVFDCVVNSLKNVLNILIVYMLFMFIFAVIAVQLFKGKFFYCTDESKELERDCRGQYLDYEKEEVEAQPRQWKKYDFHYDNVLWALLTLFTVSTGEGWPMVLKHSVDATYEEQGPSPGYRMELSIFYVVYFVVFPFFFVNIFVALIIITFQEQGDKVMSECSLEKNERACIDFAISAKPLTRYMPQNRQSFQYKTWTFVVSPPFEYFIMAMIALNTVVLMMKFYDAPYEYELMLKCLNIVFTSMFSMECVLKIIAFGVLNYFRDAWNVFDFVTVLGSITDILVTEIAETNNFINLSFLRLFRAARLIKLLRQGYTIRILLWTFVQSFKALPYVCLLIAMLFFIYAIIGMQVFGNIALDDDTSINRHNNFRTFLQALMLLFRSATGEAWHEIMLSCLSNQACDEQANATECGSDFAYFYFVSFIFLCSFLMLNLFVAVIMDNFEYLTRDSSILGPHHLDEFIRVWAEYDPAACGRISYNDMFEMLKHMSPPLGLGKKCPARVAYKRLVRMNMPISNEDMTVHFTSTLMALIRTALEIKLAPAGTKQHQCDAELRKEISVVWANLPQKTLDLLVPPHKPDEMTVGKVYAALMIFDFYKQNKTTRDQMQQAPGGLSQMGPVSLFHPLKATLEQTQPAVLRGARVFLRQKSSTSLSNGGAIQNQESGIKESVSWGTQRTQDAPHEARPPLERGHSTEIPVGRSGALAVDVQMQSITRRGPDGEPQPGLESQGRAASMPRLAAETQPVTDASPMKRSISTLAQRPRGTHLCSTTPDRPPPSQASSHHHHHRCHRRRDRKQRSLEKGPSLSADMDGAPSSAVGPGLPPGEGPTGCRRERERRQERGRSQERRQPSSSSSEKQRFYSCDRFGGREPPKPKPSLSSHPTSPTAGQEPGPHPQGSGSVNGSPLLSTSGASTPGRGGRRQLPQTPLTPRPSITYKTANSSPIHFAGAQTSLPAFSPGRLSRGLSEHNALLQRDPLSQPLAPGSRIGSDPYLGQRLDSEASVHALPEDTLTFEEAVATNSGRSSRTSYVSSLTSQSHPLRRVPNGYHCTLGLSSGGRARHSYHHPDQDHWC
T1 sequence (Q02410 whole entry): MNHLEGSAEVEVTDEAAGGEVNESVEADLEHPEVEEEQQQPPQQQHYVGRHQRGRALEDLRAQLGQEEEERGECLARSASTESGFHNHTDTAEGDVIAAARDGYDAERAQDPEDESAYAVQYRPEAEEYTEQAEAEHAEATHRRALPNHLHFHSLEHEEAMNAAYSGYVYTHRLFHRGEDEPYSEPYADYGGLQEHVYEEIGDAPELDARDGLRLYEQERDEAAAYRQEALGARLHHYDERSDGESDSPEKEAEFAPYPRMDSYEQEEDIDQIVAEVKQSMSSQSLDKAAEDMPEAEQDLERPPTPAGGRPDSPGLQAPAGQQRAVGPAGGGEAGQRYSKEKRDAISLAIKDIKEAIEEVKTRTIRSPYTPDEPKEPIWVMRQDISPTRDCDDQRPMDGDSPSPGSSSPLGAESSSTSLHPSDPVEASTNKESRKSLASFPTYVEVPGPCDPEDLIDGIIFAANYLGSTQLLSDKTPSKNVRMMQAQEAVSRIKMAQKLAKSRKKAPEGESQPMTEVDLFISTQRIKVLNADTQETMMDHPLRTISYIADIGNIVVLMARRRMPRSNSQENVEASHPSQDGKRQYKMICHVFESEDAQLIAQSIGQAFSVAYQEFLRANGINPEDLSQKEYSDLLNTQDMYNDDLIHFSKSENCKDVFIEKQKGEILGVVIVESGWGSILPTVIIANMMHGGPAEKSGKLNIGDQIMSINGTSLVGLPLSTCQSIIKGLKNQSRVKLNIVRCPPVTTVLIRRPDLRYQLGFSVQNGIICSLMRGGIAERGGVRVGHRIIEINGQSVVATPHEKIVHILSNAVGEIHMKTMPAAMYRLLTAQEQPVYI

As to `O=C(c1ccc2nc(-c3ccco3)c(-c3ccco3)nc2c1)N1CCC2(CC1)OCCO2`, the IC50 in [1] is 2.45 µM (active); in assay [2], 1.39 µM (active); in [3], 8.97 µM (not active); in assay [4], > 56.8 µM (inactive); in assay [5], > 100 µM (active).
Consider `CCOC(=O)c1sc2nc(-c3ccco3)c3c(c2c1N)CC(C)(C)OC3`, for which the values for the 50% inhibitory concentration (IC50) in assay [1], in [2] and in assay [4] were 9.58 µM (active), 5.26 µM (active) and > 56.8 µM (inactive), respectively.
With `C=CCn1c(SCc2ccc(Cl)cc2)nc2c1c(=O)[nH]c(=O)n2C`, the 50% effective concentration (EC50) in [6] is 29.3 µM (active); in assay [7] it was > 12 µM (not active); in assay [8], > 12 µM (not active); in assay [9] it was < 0.1 µM (active); in [10] it was > 120 µM (not active); in assay [11], > 12 µM (not active).
Consider `COc1ccc(C(CC(=O)N2CCCCC2)c2c(OC)cc(OC)c3c(-c4ccccc4)cc(=O)oc23)cc1` (stereo not drawn), for which the IC50 was 7.25 µM (active) in [12]; 33.4 µM (active) in assay [13]; 10.4 µM (active) in [14]; 25.9 µM (active) in assay [15]; 4.7 µM (active) in assay [16].
On to `Cc1cccc(C(=O)Nc2ccc(S(=O)(=O)N3CCOCC3)cc2C)c1`, for which the IC50 is > 100 µM (inactive) in assay [12], 11.2 µM (active) in assay [13], 4.44 µM (active) in assay [14] and 9.37 µM (active) in assay [15].
As to `Cc1ccc(NC(=O)C2CCCN2C(=O)Oc2ccccc2)cc1` (stereo not drawn), the IC50 in assay [17] and in [18] was > 100 µM (inactive) in each case.
`Oc1cccc2cc3cccc(O)c3c(O)c12`: the concentration for half-maximal inhibition (IC50) in assay [1] was 19.9 µM (active); in assay [2], 38.3 µM (active); in assay [19] it was 2.39 µM (active); in [20], 16.9 µM (active); in [21], 1.9 µM (active).
Regarding `Cc1ccc(Cl)cc1NC(=S)Nn1cnnc1`, the half-inhibitory concentration (IC50) in [22] was 2.06 µM (active); in assay [23], > 59.6 µM (not active).
For `Cc1cc(C)n2nc(C(=O)OC(C)C(=O)c3cc(C)c(C)cc3C)nc2n1` (stereo not drawn), the AC50 in assay [24] is > 350 µM (inactive).
Still for that read-out and setting: for `Oc1ccccc1/C=N/c1ccccc1-c1nc2ccccc2[nH]1` the value was 241 µM (active).
With `CC[C@]1(O)CC2CN(CCc3c([nH]c4ccccc34)[C@@](C(=O)OC)(c3cc4c(cc3OC)N(C=O)[C@H]3[C@@](O)(C(=O)OC)[C@H](OC(C)=O)[C@]5(CC)C=CCN6CC[C@]43[C@@H]65)C2)C1` (stereo partly drawn) [VINCRISTINE SULFATE], the EC50 in assay [6] is < 0.1 µM (active); in [7], 0.047 µM (active); in assay [8] it was 0.063 µM (active); in assay [9] it was < 0.1 µM (active); in [10], < 0.1 µM (active); in assay [11], 0.055 µM (active). For the same compound, the IC50 in [25] is > 80 µM (inactive); in [26], > 67.5 µM (inactive); in assay [27], > 0.278 µM (active).
